Laboratory results reported in patent US6861390B2, “Derivatives of UK-2A” (priority 2001, dated 2005).

What was measured:
[1] = system: Phytophthora infestans (PHYTIN); experiment: microbe, parasite or virus in culture; assay type: cell-based; conditions: in Secale cereale, read-out: T8 PHYTIN in vitro Growth Inhibition
[2] = system: Stagonospora nodorum (Leptosphaeria nodorum, LEPTNO); experiment: microbe, parasite or virus in culture; assay type: cell-based; conditions: Parastagonospora nodorum, read-out: T7 LEPTNO in vitro Growth Inhibition
[3] = system: Magnaporthe grisea (Pyricularia oryzae, PYRIOR); experiment: microbe, parasite or virus in culture; assay type: cell-based; conditions: read-out: T9 PYRIOR in vitro Growth Inhibition
[4] = system: Leptosphaeria nodorum (LEPTNO); experiment: Glume Blotch of Wheat, whole plant 24 Hour Protectant (T2); conditions: Parastagonospora nodorum; wheat (cultivar Yuma), sprayed at 100 ppm, inoculated after 24 hours; read-out: T2 LEPTNO in vivo 1 Day Protectant, control of fungal infection
[5] = system: Puccinia recondita (PUCCRT); experiment: Brown Rust of Wheat, whole plant 24 Hour Protectant (T5); conditions: wheat (cultivar Yuma), sprayed at 100 ppm, inoculated after 24 hours, read-out: T5 PUCCRT in vivo 1 Day Protectant, control of fungal infection
[6] = system: Septoria tritici (SEPTTR); experiment: Leaf Blotch of Wheat, whole plant 24 Hour Protectant (T6); conditions: Zymoseptoria tritici; wheat (cultivar Monon), sprayed at 100 ppm, inoculated after 24 hours; read-out: T6 SEPTTR in vivo 1 Day Protectant, control of fungal infection
[7] = system: Erysiphe graminis (ERYSGT); experiment: Powdery Mildew of Wheat, whole plant 24 Hour Protectant (T1); conditions: Blumeria graminis, in Triticum aestivum, read-out: T1 ERYSGT in vivo 1 Day Protectant, control of fungal infection
[8] = system: Phytophthora infestans (PHYTIN); experiment: whole plant or invertebrate; conditions: in Solanum lycopersicum, 24 h, read-out: T3 PHYTIN in vivo 1 Day Protectant, control of fungal infection
[9] = system: Mycosphaerella graminicola (Septoria tritici, SEPTTR); experiment: microbe, parasite or virus in culture; assay type: cell-based; conditions: Zymoseptoria tritici, read-out: T11 SEPTTR in vitro Growth Inhibition
Ustilago maydis (USTIMA) = experiment: microbe, parasite or virus in culture; assay type: cell-based; conditions: Mycosarcoma maydis, read-out: T12 USTIMA in vitro Growth Inhibition
[10] = system: Rhizoctonia solani (RHIZSO); experiment: microbe, parasite or virus in culture; assay type: cell-based; conditions: read-out: T10 RHIZSO in vitro Growth Inhibition

`CCOC(=O)OCOc1c(OC)ccnc1C(=O)N[C@H]1COC(=O)[C@H](Cc2ccccc2)[C@@H](OC(=O)C(C)C)[C@H](C)OC1=O` [Compound 45] showed an inhibition at 25 ppm [1] of under 80%, an inhibition at 25 ppm [2] of over 80% and an inhibition at 25 ppm [3] of over 80%. It also gave a pest or weed control at 100 ppm [4] of 75 to 100%, a pest or weed control at 100 ppm [5] of 75 to 100% and a pest or weed control at 100 ppm [6] of 75 to 100%. The pest or weed control at 100 ppm [7] was 25 to 74%, the pest or weed control at 100 ppm [8] was 25 to 74% and the inhibition at 25 ppm [9] was under 80%. For the same molecule, the inhibition at 25 ppm (Ustilago maydis (USTIMA)) was under 80% and the inhibition at 25 ppm [10] was under 80%.
In the case of `CCCOC(=O)OCOc1c(OC)ccnc1C(=O)N[C@H]1COC(=O)[C@H](Cc2ccccc2)[C@@H](OC(=O)C(C)C)[C@H](C)OC1=O` [Compound 46], the inhibition at 25 ppm [1] is reported as under 80%, the inhibition at 25 ppm [2] is reported as over 80% and the inhibition at 25 ppm [3] is reported as over 80%. The pest or weed control at 100 ppm [4] was 75 to 100%, the pest or weed control at 100 ppm [5] was 75 to 100% and the pest or weed control at 100 ppm [6] was 75 to 100%. It also gave a pest or weed control at 100 ppm [7] of 25 to 74%, a pest or weed control at 100 ppm [8] of under 25% and an inhibition at 25 ppm [9] of under 80%. It also gave an inhibition at 25 ppm (Ustilago maydis (USTIMA)) of under 80% and an inhibition at 25 ppm [10] of under 80%.
For `COCCOC(=O)OCOc1c(OC)ccnc1C(=O)N[C@H]1COC(=O)[C@H](Cc2ccccc2)[C@@H](OC(=O)C(C)C)[C@H](C)OC1=O` [Compound 48], the inhibition at 25 ppm [1] was under 80%, the inhibition at 25 ppm [2] was over 80% and the inhibition at 25 ppm [3] was under 80%. The pest or weed control at 100 ppm [4] was 75 to 100%, the pest or weed control at 100 ppm [5] was 75 to 100% and the pest or weed control at 100 ppm [6] was 75 to 100%. It also gave a pest or weed control at 100 ppm [7] of 75 to 100%, a pest or weed control at 100 ppm [8] of under 25% and an inhibition at 25 ppm [9] of under 80%. It also gave an inhibition at 25 ppm (Ustilago maydis (USTIMA)) of over 80% and an inhibition at 25 ppm [10] of under 80%.
Molecule `COCCC(=O)OCOc1c(OC)ccnc1C(=O)N[C@H]1COC(=O)[C@H](Cc2ccccc2)[C@@H](OCC(C)C)[C@H](C)OC1=O` [Compound 54] has an inhibition at 25 ppm [1] of under 80%, an inhibition at 25 ppm [2] of over 80% and an inhibition at 25 ppm [3] of over 80%. The pest or weed control at 100 ppm [4] was 75 to 100%, the pest or weed control at 100 ppm [5] was 75 to 100% and the pest or weed control at 100 ppm [6] was 75 to 100%. For the same molecule, the pest or weed control at 100 ppm [7] was 75 to 100%, the pest or weed control at 100 ppm [8] was under 25% and the inhibition at 25 ppm [9] was over 80%. It also gave an inhibition at 25 ppm (Ustilago maydis (USTIMA)) of over 80% and an inhibition at 25 ppm [10] of under 80%.
Work on `CCCO[C@H]1[C@H](C)OC(=O)[C@@H](NC(=O)c2nccc(OC)c2OCOC(=O)CCOC)COC(=O)[C@@H]1Cc1ccccc1` [Compound 55] yielded an inhibition at 25 ppm [1] of under 80%, an inhibition at 25 ppm [2] of over 80% and an inhibition at 25 ppm [3] of over 80%. It also gave a pest or weed control at 100 ppm [4] of 75 to 100%, a pest or weed control at 100 ppm [5] of 75 to 100% and a pest or weed control at 100 ppm [6] of 75 to 100%. It also gave a pest or weed control at 100 ppm [7] of 75 to 100%, a pest or weed control at 100 ppm [8] of under 25% and an inhibition at 25 ppm [9] of over 80%. It also gave an inhibition at 25 ppm (Ustilago maydis (USTIMA)) of under 80% and an inhibition at 25 ppm [10] of under 80%.
Work on `COc1ccnc(C(=O)N[C@H]2COC(=O)[C@H](Cc3ccccc3)[C@@H](OCC(C)C)[C@H](C)OC2=O)c1OCOC(=O)C1CC1` [Compound 56] yielded an inhibition at 25 ppm [1] of under 80%, an inhibition at 25 ppm [2] of over 80% and an inhibition at 25 ppm [3] of over 80%. For the same molecule, the pest or weed control at 100 ppm [4] was 75 to 100%, the pest or weed control at 100 ppm [5] was 75 to 100% and the pest or weed control at 100 ppm [6] was 75 to 100%. It also gave a pest or weed control at 100 ppm [7] of 75 to 100%, a pest or weed control at 100 ppm [8] of under 25% and an inhibition at 25 ppm [9] of over 80%. For the same molecule, the inhibition at 25 ppm (Ustilago maydis (USTIMA)) was under 80% and the inhibition at 25 ppm [10] was under 80%.
With `COCCOC(=O)OCOc1c(OC)ccnc1C(=O)N[C@H]1COC(=O)[C@H](Cc2ccccc2)[C@@H](OCC(C)C)[C@H](C)OC1=O` [Compound 57] the inhibition at 25 ppm [1] was under 80%, the inhibition at 25 ppm [2] was over 80% and the inhibition at 25 ppm [3] was over 80%. For the same molecule, the pest or weed control at 100 ppm [4] was 75 to 100%, the pest or weed control at 100 ppm [5] was 75 to 100% and the pest or weed control at 100 ppm [6] was 75 to 100%. It also gave a pest or weed control at 100 ppm [7] of 75 to 100%, a pest or weed control at 100 ppm [8] of under 25% and an inhibition at 25 ppm [9] of over 80%. The inhibition at 25 ppm (Ustilago maydis (USTIMA)) was over 80% and the inhibition at 25 ppm [10] was under 80%.
With `COCC(=O)OCOc1c(OC)ccnc1C(=O)N[C@H]1COC(=O)[C@H](Cc2ccccc2)[C@@H](OCC(C)C)[C@H](C)OC1=O` [Compound 58] the inhibition at 25 ppm [1] was over 80%, the inhibition at 25 ppm [2] was over 80% and the inhibition at 25 ppm [3] was over 80%. It also gave a pest or weed control at 100 ppm [4] of 75 to 100%, a pest or weed control at 100 ppm [5] of 75 to 100% and a pest or weed control at 100 ppm [6] of 75 to 100%. It also gave a pest or weed control at 100 ppm [7] of 75 to 100%, a pest or weed control at 100 ppm [8] of under 25% and an inhibition at 25 ppm [9] of over 80%. For the same molecule, the inhibition at 25 ppm (Ustilago maydis (USTIMA)) was over 80% and the inhibition at 25 ppm [10] was under 80%.
